Experimental data taken from patent US7749698B2, “p53 wild-type as biomarker for the treatment with mTOR inhibitors in combination with a cytotoxic agent” (Novartis AG, priority 2004, dated 2010).

Tests used:
A549 cells [1] = experiment: PARP cleavage immunoblot, gemcitabine combination; assay type: cell-based, human; details: 20 nM with gemcitabine 5 to 12.5 nM, 72 hours, compared to gemcitabine or the mTOR inhibitor alone
Experimental: A549 cells are seeded at a density of 0.1×10^6 cells/10 ml per 10 cm plates and incubated for 24 hours at 37° C. and 5% CO2. Cells are incubated with suboptimal concentrations of gemcitabine (e.g. 5 to 12.5 nM) either in combination with 20 nM 40-O-(2-hydroxyethyl) rapamycin or with the vehicle-control DMSO for an additional 72 hours. Cell extracts corresponding to 50 μg total protein are resolved by 8% SDS-PAGE electrophoresis and immunoblot analysis is performed using rabbit polyclonal antibodies raised against Poly (ADP-Ribose) Polymerase (PARP) (Cell Signalling Technology catalogue #9542). […] This confirms the above results that, in the p53 (TP53) wild-type A549 cells, the presence of the mTOR inhibitor results in higher levels of cell death at suboptimal gemcitabine concentrations.

[2] = tested on: p53 (TP53) wild-type human lung adenocarcinoma A549 cells; experiment: YO-PRO cell death/cytotoxicity assay, cisplatin combination; assay type: cell-based
Experimental: (§1) p53 (TP53) wild-type human lung adenocarcinoma A549 cells are seeded at a density of 5×10^3 cells/100 μl per well in 96-well plates and incubated for 24 hours at 37° C. and 5% CO2. Cells are incubated with suboptimal concentrations of cisplatin (e.g. 3 to 10 μg/ml) either in combination with 20 nM 40-O-(2-hydroxyethyl) rapamycin or with the vehicle-control DMSO for an additional 24 hours. The YO-PRO® assay is performed as above to determine cell death or cytotoxicity and, after cell lysis, the relative cell proliferation. […] In the latter case, incubation with compounds is for 30 hours.

[3] = tested on: p53 (TP53) wild-type MCF7 cells; experiment: p21 and Bax immunoblot, cisplatin with or without mTOR inhibitor; assay type: cell-based, human; details: for Bax protein expression: either agent alone or in combination
Experimental: (§2) p53 (TP53) wild-type A549 and MCF7 cells are seeded at a density of 0.3×10^6 and 0.4×10^6 cells/4 ml per 6 cm plates, respectively, and incubated for 24 hours at 37° C. and 5% CO2. Cells are incubated with suboptimal concentrations of cisplatin (e.g. 0.5 to 4 μg/ml) either in combination with 20 nM 40-O-(2-hydroxyethyl) rapamycin or with the vehicle-control DMSO for an additional 24 hours and 30 hours, respectively. Cell extracts corresponding to 30 μg total protein are resolved on 15% SDS-PAGE electrophoresis and immunoblot analysis is performed using mouse monoclonal antibodies raised against p21 (Oncogene Research Products, Clone EA10, catalogue #OP64). […] Strikingly, the presence of the mTOR inhibitor, e.g. 40-O-(2-hydroxyethyl) rapamycin, attenuates cisplatin-induced upregulation of p21 protein expression. In contrast, Bax protein expression, a p53-regulated pro-apoptotic protein, is unaffected by either agent alone or in combination. In this assay cytotoxic-induced p21 protein expression is inhibited by the presence of the mTOR inhibitor. This provides an explanation for the enhanced cell killing/apoptotic response observed with cisplatin and mTOR inhibitor combinations.

[4] = tested on: p53 (TP53) wild-type A549 cells; experiment: as above; assay type: cell-based, human; details: for Bax protein expression: either agent alone or in combination
Experimental: as §2

A549 cells [5] = experiment: PARP cleavage immunoblot, cisplatin combination; assay type: cell-based, human; details: 20 nM with cisplatin 0.5 to 4 μg/ml, 24 hours, compared to cisplatin or the mTOR inhibitor alone
Experimental: A549 cells are seeded at a density of 0.1×10^6 cells/10 ml per 10 cm plates and incubated for 24 hours at 37° C. and 5% CO2. Cells are incubated with suboptimal concentrations of cisplatin (e.g. 0.5 to 4 μg/ml) either in combination with 20 nM 40-O-(2-hydroxyethyl) rapamycin or with the vehicle-control DMSO for an additional 24 hours. Cell extracts corresponding to 50 μg total protein are resolved on 8% SDS-PAGE electrophoresis and immunoblot analysis is performed using rabbit polyclonal antibodies raised against Poly (ADP-Ribose) Polymerase (PARP) and p53. […] This confirms the above results that, in the p53 (TP53) wild-type A549 cells, the presence of the mTOR inhibitor results in higher levels of cell death at suboptimal cisplatin concentrations.

PC3M = experiment: YO-PRO cell death/cytotoxicity assay, cisplatin combination; assay type: cell-based, human; details: p53 mutated/deficient, 20 nM with cisplatin, 30 hours
Experimental: as §1
(§3) This procedure is repeated however with the use of p53 (TP53) mutated/deficient tumor cell lines, e.g. PC3M (seeded at a density of 3×10^3 cells/100 μl) or DU145 (seeded at a density of 5×10^3 cells/100 μl:HTB-81; American Type Culture Collection). The incubation with compounds in this case is 22 hours for DU145 or 30 hours for PC3M.

DU145 = experiment: as above; assay type: cell-based; details: DU145, p53 mutated/deficient; 20 nM with cisplatin, 22 hours
Experimental: as §1, §3

[6] = tested on: PC3M human prostate carcinoma cells; experiment: YO-PRO cell death/cytotoxicity assay, gemcitabine combination; assay type: cell-based; details: p53 mutated/deficient, 20 nM with gemcitabine
Experimental: (§4) p53 (TP53) wild-type human adenocarcinoma A549 (CCL-185) tumor cells (American Type Culture Collection, Rockville, Md., USA) are seeded at a density of 2×10^3 cells/100 μl per well in 96-well plates and incubated for 24 hours at 37° C. and 5% CO2. Cells are incubated with suboptimal concentrations of gemcitabine (e.g. 5 to 17.5 nM) either in combination with 20 nM 40-O-(2-hydroxyethyl) rapamycin or with the vehicle-control DMSO for an additional 72 hours. YO-PRO dye (YO-PRO^R-1 iodide [491/509], cat #Y3603, Molecular Probes) is added to the cells and a Cytofluor II Fluorescence plate reader is used to determine cell death or cytotoxicity and, after cell lysis, the relative cell proliferation.
(§5) This procedure is repeated however with the use of p53 (TP53) mutated/deficient tumor cell lines, e.g. PC3M human prostate carcinoma cells (seeded at a density of 0.8×10^3 cells/100 μl) or MDA-MB231 human breast carcinoma cells (seeded at a density of 2×10^3 cells/100 μl; HTB-26; American Type Culture Collection).

[7] = tested on: MDA-MB231 human breast carcinoma cells; experiment: as above; assay type: cell-based; details: MDA-MB231, p53 mutated/deficient; 20 nM with gemcitabine
Experimental: as §4, §5

[8] = tested on: p53 (TP53) wild-type human adenocarcinoma A549 (CCL-185) tumor cells; experiment: as above; assay type: cell-based; details: 20 nM with gemcitabine 5 to 17.5 nM, 72 hours, p<0.05, ANOVA with Tukey test
Experimental: as §4

[9] = tested on: p53 (TP53) wild-type A549 cells; experiment: p21 siRNA transfection, cisplatin treatment, p21/PARP immunoblot; assay type: cell-based, human; details: A549 untransfected or LacZ siRNA control transfected; cisplatin 1 to 2 μg/ml, 24 hours
Experimental: p53 (TP53) wild-type A549 cells are seeded at a density of 0.1×10^6 cells/5 ml per 6 cm plates and incubated for 24 hours at 37° C. and 5% CO2. Cells are left untransfected or transiently transfected with 100 nM siRNA targeting either p21 (Accession number: NM000389; target sequence: 5′-GTG GAC AGC GAG CAG CTG A-3′) or LacZ (as above) control siRNA, using Oligofectamine (Invitrogen, Cat # 12252-011). After 30 hours incubation, cells are incubated with suboptimal concentrations of cisplatin (e.g. 1 to 2 μg/ml) for an additional 24 hours. Cell extracts corresponding to 30 μg (p21) and 50 μg (PARP) total protein are resolved on 15 and 10% SDS-PAGE electrophoresis, respectively, and immunoblot analysis is performed using mouse monoclonal and rabbit polyclonal antibodies raised against p21 and PARP, respectively.

[10] = tested on: p53 (TP53) wild-type A549 cells; experiment: p53 siRNA transfection, cisplatin treatment, p53/p21/PARP immunoblot; assay type: cell-based, human; details: A549 untransfected or LacZ siRNA control transfected
Experimental: p53 (TP53) wild-type A549 cells are seeded at a density of 0.1×10^6 cells/5 ml per 6 cm plates and incubated for 24 hours at 37° C. and 5% CO2. Cells are left untransfected or transiently transfected with 100 nM siRNA targeting either human p53 (Accession number: NM000546; target sequence: 5′-GCA TCT TAT CCG AGT GGA A-3′) or LacZ (Accession number: M55068; target sequence: 5′-GCGGCTGCCGGAATTTACCTT-3′) control siRNA, using Oligofectamine (Invitrogen, Cat # 12252-011). After 30 hours incubation, cells are incubated with increasing concentrations of cisplatin (e.g. 0.5 to 6 μg/ml) for an additional 24 hours. Cell extracts corresponding to 30 μg (p21) and 50 μg (p53 and PARP) total protein are resolved on 15% (p21) and 10% (p53 and PARP) SDS-PAGE electrophoresis, and immunoblot analysis is performed using mouse monoclonal and rabbit polyclonal antibodies raised against p21 and p53/PARP, respectively. […] The same effects on p53 expression, p21 expression and PARP cleavage are also observed with two other siRNA's targeting human p53 (target sequences: 5′-GGA AGA CTC CAG TGG TAA T-3′ and 5′-GAT ATT GAA CAA TGG TTC A-3′).

[11] = cisplatin 0.5 to 6 μg/ml, 24 hours

SMILES | PARP cleavage (a marker of apoptosis) at suboptimal gemcitabine concentrations (A549 cells [1]) | potentiation of the cell killing effect of suboptimal concentrations of cisplatin ([2]; 20 nM with cisplatin 3 to 10 μg/ml, 24 hours, p<0.05, ANOVA with Tukey test) | interaction between RAD001 and cisplatin (two-way ANOVA) ([2]; p<0.001) | cisplatin-induced upregulation of p21 protein expression ([3]; 20 nM with cisplatin 0.5 to 4 μg/ml, 30 hours) | Bax protein expression [3] | cisplatin-induced upregulation of p21 protein expression ([4]; 20 nM with cisplatin 0.5 to 4 μg/ml, 24 hours) | Bax protein expression [4] | PARP cleavage (a marker of apoptosis) at suboptimal cisplatin concentrations (A549 cells [5]) | potentiation of cell death (PC3M) | potentiation of cell death (DU145) | potentiation of cell death [6] | potentiation of cell death [7] | potentiation of the cell killing effect of suboptimal concentrations of gemcitabine [8] | PARP cleavage (a marker of apoptosis) [9] | p21 protein expression [9] | p21 protein expression ([3]; cisplatin alone 0.5 to 4 μg/ml, 30 hours) | p21 protein expression ([4]; cisplatin alone 0.5 to 4 μg/ml, 24 hours) | PARP cleavage (a marker of apoptosis) ([10]; at higher cisplatin concentrations (2 to 6 μg/ml)) | p21 protein expression [10, 11] | p53 protein expression [10, 11]
CO[C@H]1C[C@@H]2CC[C@@H](C)[C@@](O)(O2)C(=O)C(=O)N2CCCC[C@H]2C(=O)O[C@H]([C@H](C)C[C@@H]2CC[C@@H](OCCO)[C@H](OC)C2)CC(=O)[C@H](C)/C=C(\C)[C@@H](O)[C@@H](OC)C(=O)[C@H](C)C[C@H](C)/C=C/C=C/C=C/1C [40-O-(2-hydroxyethyl) rapamycin] | increased PARP cleavage | statistically significant potentiation | highly significant | attenuates | unaffected | attenuates | unaffected | increased PARP cleavage | No striking or consistent potentiation | No striking or consistent potentiation | No striking or consistent potentiation | No striking or consistent potentiation | statistically significant potentiation | – | – | – | – | – | – | –
N.N.[Cl][Pt][Cl] [cisplatin] | – | – | – | – | unaffected | – | unaffected | – | – | – | – | – | – | little evidence of PARP cleavage | induces p21 protein expression in a concentration-dependent manner | induces increased p21 protein expression in a concentration-dependent manner | induces increased p21 protein expression in a concentration-dependent manner | evidence of PARP cleavage | induces p53 and p21 protein expression in a concentration-dependent manner | induces p53 and p21 protein expression in a concentration-dependent manner
